System: 233499-124-R-J3-PDC complex spheroid growth
Experiment: Anticancer human tumor 233499-124-R-J3-PDC patient-derived colon adenocarcinoma cell line growth inhibition [AhR]
Settings: for IC50: curve of first compound; for viability, T/C: stronger effect = lower value
Method in brief: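 Complex tumor spheroids co-cultured with HUVEC and human MSC stroma; AhR antagonists tested in combination with standard-of-care and investigational agents. Top concentration at or near clinical Cmax (else 10 microM), half-log dilutions; growth expressed as percent test/control.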

[1] = second compound 0.1 µM, first compound 0.00949 µM
[2] = second compound 0.1 µM, first compound 0.03 µM
[3] = second compound 0.1 µM, first compound 0.0949 µM
[4] = second compound 0.1 µM, first compound 0.3 µM
[5] = second compound 0.316 µM, first compound 0.00949 µM
[6] = second compound 0.316 µM, first compound 0.03 µM
[7] = second compound 0.316 µM, first compound 0.0949 µM
[8] = second compound 0.316 µM, first compound 0.3 µM
[9] = second compound 1 µM, first compound 0.00949 µM
[10] = second compound 1 µM, first compound 0.03 µM
[11] = second compound 1 µM, first compound 0.0949 µM
[12] = second compound 1 µM, first compound 0.3 µM
[13] = second compound 3.16 µM, first compound 0.00949 µM
[14] = second compound 3.16 µM, first compound 0.03 µM
[15] = second compound 3.16 µM, first compound 0.0949 µM
[16] = second compound 3.16 µM, first compound 0.3 µM
[17] = second compound 10 µM, first compound 0.00949 µM
[18] = second compound 10 µM, first compound 0.03 µM
[19] = second compound 10 µM, first compound 0.0949 µM
[20] = second compound 10 µM, first compound 0.3 µM
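Further: spheroids exposed to agents for seven days before reading.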

Structure (SMILES) | IC50 (second compound 0.1 µM) | IC50 (second compound 0.316 µM) | IC50 (second compound 1 µM) | IC50 (second compound 3.16 µM) | IC50 (second compound 10 µM) | viability, T/C [1] | viability, T/C [2] | viability, T/C [3] | viability, T/C [4] | viability, T/C [5] | viability, T/C [6] | viability, T/C [7] | viability, T/C [8] | viability, T/C [9] | viability, T/C [10] | viability, T/C [11] | viability, T/C [12] | viability, T/C [13] | viability, T/C [14] | viability, T/C [15] | further results
CCN(c1cc(-c2ccc(CN3CCOCC3)cc2)cc(C(=O)NCc2c(C)cc(C)[nH]c2=O)c1C)C1CCOCC1 + CC(CO)NC(=O)c1cc(-c2ccc(Cl)cc2)nn(-c2cnn(C)c2)c1=O | > 3000 nM | > 3000 nM | > 3000 nM | > 3000 nM | > 3000 nM | 100% | 86.8% | 88.2% | 82.9% | 103% | 98.6% | 94.9% | 85.6% | 95.6% | 96.1% | 91% | 95.4% | 88% | 82% | 85.6% | viability, T/C (second compound 0.1 µM, first compound 0.949 µM): 93.5%; viability, T/C (second compound 0.1 µM, first compound 3 µM): 94.3%; viability, T/C (second compound 0.316 µM, first compound 0.949 µM): 99.9%; viability, T/C (second compound 0.316 µM, first compound 3 µM): 83.8%; viability, T/C (second compound 1 µM, first compound 0.949 µM): 88.4%; viability, T/C (second compound 1 µM, first compound 3 µM): 90.2%; viability, T/C [16]: 91.9%; viability, T/C (second compound 3.16 µM, first compound 0.949 µM): 98.7%; viability, T/C (second compound 3.16 µM, first compound 3 µM): 86.6%; viability, T/C [17]: 80.9%; viability, T/C [18]: 77.2%; viability, T/C [19]: 79.7%; viability, T/C [20]: 82.5%; viability, T/C (second compound 10 µM, first compound 0.949 µM): 73.5%; viability, T/C (second compound 10 µM, first compound 3 µM): 83.1%
Nc1ncn(C2CC(O)C(CO)S2)c(=O)n1 (stereo not given) + CC(CO)NC(=O)c1cc(-c2ccc(Cl)cc2)nn(-c2cnn(C)c2)c1=O | > 300 nM | > 300 nM | > 300 nM | > 300 nM | > 300 nM | 92.5% | 109% | 104% | 86.3% | 105% | 97% | 104% | 95% | 113% | 100% | 106% | 96.9% | 103% | 112% | 89.5% | viability, T/C (second compound 0.1 µM, first compound 0.000949 µM): 106%; viability, T/C (second compound 0.1 µM, first compound 0.003 µM): 109%; viability, T/C (second compound 0.316 µM, first compound 0.000949 µM): 99.5%; viability, T/C (second compound 0.316 µM, first compound 0.003 µM): 95.5%; viability, T/C (second compound 1 µM, first compound 0.000949 µM): 98.2%; viability, T/C (second compound 1 µM, first compound 0.003 µM): 105%; viability, T/C (second compound 3.16 µM, first compound 0.000949 µM): 103%; viability, T/C (second compound 3.16 µM, first compound 0.003 µM): 100%; viability, T/C [16]: 90.5%; viability, T/C (second compound 10 µM, first compound 0.000949 µM): 86.8%; viability, T/C (second compound 10 µM, first compound 0.003 µM): 84.1%; viability, T/C [17]: 101%; viability, T/C [18]: 100%; viability, T/C [19]: 102%; viability, T/C [20]: 87.6%
